One assay concerns Pasteurella multocida. Kind of assay: Antibacterial activity against Pasteurella multocida. Type of assay: functional.
In another assay the test system is Staphylococcus aureus. Description: Antibacterial activity against Staphylococcus aureus. The format is functional.

Broadly, the MIC is the lowest concentration that inhibits growth of the organism.

Converted amounts (≈) assume the structure as drawn.

Turning to `CC(=O)C1=C(O)S/C(=C\c2ccc(F)cc2)C1=O`, the MIC in the assay on Pasteurella multocida was 3.13 µg/mL (≈ 11.8 µM); with Staphylococcus aureus, above 200 µg/mL.

Turning to `CC(=O)C1=C(O)S/C(=C\c2cccs2)C1=O`, the results for the MIC in the assay on Pasteurella multocida and in the assay on Staphylococcus aureus were 1.56 µg/mL (≈ 6.18 µM) and above 200 µg/mL, respectively.

As for `CC(=O)C1=C(O)S/C(=C\c2ccccn2)C1=O`, the MIC against Pasteurella multocida is 100 µg/mL (≈ 404 µM); against Staphylococcus aureus, above 200 µg/mL.

In the case of `CC1=C(O)S[C@](C)(/C=C(\C)CO)C1=O`, the MIC against Pasteurella multocida and against Staphylococcus aureus was above 100 µg/mL throughout.

`CC(=O)C1=C(O)SC(C/C=C(\C)CC/C=C(\C)CCC=C(C)C)C1=O` (stereo not given): the values for the MIC against Pasteurella multocida and against Staphylococcus aureus were 0.2 µg/mL (≈ 0.552 µM) and 1.56 µg/mL (≈ 4.3 µM), respectively.

In the case of `C=C/C(C)=C\[C@@]1(C)SC(O)=C(C)C1=O`, the MIC was 0.2 µg/mL (≈ 0.951 µM) against Pasteurella multocida and above 100 µg/mL in the assay with Staphylococcus aureus.

Regarding `CC(=O)C1=C(O)S/C(=C\N(C)C)C1=O`, the MIC against Pasteurella multocida and in the assay with Staphylococcus aureus was above 200 µg/mL in each case.

In the case of `CC(=O)C1=C(O)S/C(=C\c2ccc(C(F)(F)F)cc2)C1=O`, the minimal inhibitory concentration (MIC) in the assay with Pasteurella multocida and in the assay on Staphylococcus aureus was 3.13 µg/mL (≈ 9.96 µM) throughout.

`CCCCCC(=O)/C=C/C(C)=C/[C@@]1(C)SC(O)=C(C)C1=O`: the MIC with Pasteurella multocida and against Staphylococcus aureus was above 100 µg/mL throughout.

Consider `CC(=O)C1=C(O)SCC1=O`, for which the MIC against Pasteurella multocida and in the assay on Staphylococcus aureus was above 200 µg/mL in each case.

For the compound `CC1=C(O)S[C@](C)(/C=C(C)/C=N/OCc2ccccc2)C1=O`, the MIC against Pasteurella multocida and against Staphylococcus aureus was above 100 µg/mL throughout.

With `CC1=C(O)S[C@](C)(/C=C(\C)C#N)C1=O`, the MIC in the assay with Pasteurella multocida and against Staphylococcus aureus was above 100 µg/mL each time.

In the case of `CC1=C(O)S[C@](C)(/C=C(C)/C=C/C#N)C1=O`, the MIC against Pasteurella multocida and against Staphylococcus aureus was above 100 µg/mL each time.

On to `CC(=O)OC1=C(C)C(=O)S[C@]1(C)/C=C(\C)C=O`, for which the MIC in the assay with Pasteurella multocida and in the assay with Staphylococcus aureus was above 100 µg/mL in each case.

In the case of `CC(=O)C1=C(O)S/C(=C\c2ccc3c(c2)OCO3)C1=O`, the MIC in the assay with Pasteurella multocida and in the assay with Staphylococcus aureus was above 200 µg/mL throughout.

Regarding `CC1=C(O)S[C@](C)(/C=C(\C)C=C(Br)Br)C1=O`, the MIC against Pasteurella multocida and in the assay with Staphylococcus aureus was above 100 µg/mL each time.

`CC(=O)C1=C(O)S/C(=C\c2ccccc2)C1=O`: the MIC against Pasteurella multocida and in the assay with Staphylococcus aureus was above 200 µg/mL throughout.

`CC(=O)C1=C(O)S/C(=C\c2cccc(Oc3ccc(Cl)c(Cl)c3)c2)C1=O`: the MIC in the assay on Pasteurella multocida turned out to be 0.2 µg/mL (≈ 0.491 µM); against Staphylococcus aureus, 1.56 µg/mL (≈ 3.83 µM).

In the case of `CC(=O)C1=C(O)S/C(=C\c2cccc(Oc3cccc(C(F)(F)F)c3)c2)C1=O`, the MIC turned out to be 3.13 µg/mL (≈ 7.7 µM) in the assay with Pasteurella multocida and 0.78 µg/mL (≈ 1.92 µM) in the assay with Staphylococcus aureus.

Regarding `CC(=O)C1=C(O)C(C)(Cc2ccc(F)cc2)SC1=O` (stereo not given), the MIC with Pasteurella multocida and in the assay with Staphylococcus aureus was above 200 µg/mL throughout.

In the case of `CC(=O)C1=C(O)S/C(=C\c2cccc(F)c2)C1=O`, the figures for the MIC with Pasteurella multocida and against Staphylococcus aureus were 6.25 µg/mL (≈ 23.6 µM) and 50 µg/mL (≈ 189 µM), respectively.

With `CC(=O)C1=C(O)S/C(=C\c2ccc(C#N)cc2)C1=O`, the MIC in the assay on Pasteurella multocida was above 200 µg/mL; in the assay with Staphylococcus aureus, 3.13 µg/mL (≈ 11.5 µM).

`CC(=O)C1=C(O)S/C(=C\c2ccc(Cl)cc2Cl)C1=O`: the MIC with Pasteurella multocida and in the assay with Staphylococcus aureus was 3.13 µg/mL (≈ 9.93 µM) throughout.

As to `CC(=O)C1=C(O)SC(C)C1=O` (stereo not given), the values for the MIC with Pasteurella multocida and in the assay on Staphylococcus aureus were 6.25 µg/mL (≈ 36.3 µM) and 50 µg/mL (≈ 290 µM), respectively.

As to `CCOC(=O)/C=C/C=C/C(C)=C/[C@@]1(C)SC(O)=C(C)C1=O`, the MIC against Pasteurella multocida and against Staphylococcus aureus was above 100 µg/mL in each case.

`CC(=O)C1=C(O)SC(C)(C/C=C(/C)CCC=C(C)C)C1=O` (stereo not given): the figures for the MIC against Pasteurella multocida and in the assay on Staphylococcus aureus were 100 µg/mL (≈ 324 µM) and above 200 µg/mL, respectively.

Take `CCCNC/C(C)=C/[C@@]1(C)SC(O)=C(C)C1=O`: the MIC against Pasteurella multocida and against Staphylococcus aureus was above 100 µg/mL in each case.

Take `CC(=O)C1=C(O)SC(COC(=O)Cc2ccccc2)C1=O` (stereo not given): the MIC was above 200 µg/mL against Pasteurella multocida and 3.13 µg/mL (≈ 10.2 µM) against Staphylococcus aureus.

As to `CC(=O)C1=C(O)SC(Cc2cccc(C(F)(F)F)c2)C1=O` (stereo not given), the MIC in the assay with Pasteurella multocida and with Staphylococcus aureus was 3.13 µg/mL (≈ 9.9 µM) in each case.

As for `CC(=O)C1=C(O)C(C)(C/C=C/c2ccccc2)SC1=O` (stereo not given), the minimum inhibitory concentration (MIC) was above 200 µg/mL in the assay with Pasteurella multocida and 3.13 µg/mL (≈ 10.9 µM) against Staphylococcus aureus.

As for `CC(=O)C1=C(O)SC(C)(C/C=C(\C)CC/C=C(\C)CCC=C(C)C)C1=O` (stereo not given), the MIC against Pasteurella multocida is 1.56 µg/mL (≈ 4.14 µM); in the assay with Staphylococcus aureus, above 200 µg/mL.

On to `CC(=O)C1=C(O)S/C(=C\c2cccc(OCc3ccccc3)c2)C1=O`, for which the MIC with Pasteurella multocida was above 200 µg/mL; against Staphylococcus aureus it was 3.13 µg/mL (≈ 8.88 µM).

In the case of `CC(=O)C1=C(O)SC(C/C=C/c2ccccc2)C1=O` (stereo not given), the MIC with Pasteurella multocida and in the assay with Staphylococcus aureus was 3.13 µg/mL (≈ 11.4 µM) throughout.

In the case of `CC(=O)C1=C(O)SC(C/C=C(/C)CC/C=C(\C)CCC=C(C)C)(C/C=C(/C)CC/C=C(\C)CCC=C(C)C)C1=O`, the MIC in the assay on Pasteurella multocida and against Staphylococcus aureus was above 200 µg/mL in each case.

`CC(=O)C1=C(O)SC(CCC(C)CCCC(C)C)C1=O` (stereo not given): the results for the MIC in the assay with Pasteurella multocida and against Staphylococcus aureus were 3.13 µg/mL (≈ 10.5 µM) and 0.78 µg/mL (≈ 2.61 µM), respectively.

As to `CC(=O)C1=C(O)S/C(=C\c2ccc(O)cc2)C1=O`, the MIC in the assay on Pasteurella multocida and against Staphylococcus aureus was above 200 µg/mL in each case.

Regarding `CC1=C(O)S[C@](C)(/C=C(C)/C=C/c2ccccc2)C1=O`, the MIC against Pasteurella multocida and with Staphylococcus aureus was above 100 µg/mL each time.

With `C=C/C(C)=C/[C@@]1(C)SC(=O)C(C)=C1OC(C)=O`, the MIC against Pasteurella multocida and with Staphylococcus aureus was above 100 µg/mL in each case.

Regarding `CC(=O)/C=C/C(C)=C/[C@@]1(C)SC(O)=C(C)C1=O`, the MIC against Pasteurella multocida and with Staphylococcus aureus was above 100 µg/mL each time.

As to `CCOC(=O)/C=C/C(C)=C/[C@@]1(C)SC(O)=C(C)C1=O`, the MIC against Pasteurella multocida and in the assay on Staphylococcus aureus was above 100 µg/mL in each case.
